Laboratory results reported in US20190010461A1, “HUMAN PLURIPOTENT STEM CELL-BASED SCREENING FOR SMOOTH MUSCLE CELL DIFFERENTIATION AND DISEASE” (Wisconsin Alumni Research Foundation, priority 2017, published 2019).

What was measured:
MYH11-Tom+ cells = assay: Flow cytometric analysis of MYH11-Tom+ cells in SMC differentiation; format: cell-based, human; settings: RepSox 25 μM, day 12-24
Protocol: Data are represented as mean±standard deviation (SD). […] Scale bar=1 mm. […] Scale bar=50 μm. […] Data are represented as mean±SD. Student's t-test, *: P<0.05, n=3.
FIGS. 7A-7G show the target of RepSox. […] Cells were treated with RepSox (25 μM) or SiRNA. […] Cells were treated with RepSox (25 μM) or SiRNA. […] During the smooth muscle cells differentiation, cells were treated with or without RepSox from day 10-11. […] During the smooth muscle cells differentiation, cells were treated with RepSox for 1 or 20 hours at day 12. […] Cells were treated with RepSox and non-targeting control (NT)/SiRNA at day 10. The RNA was isolated at day 14.
Optimized smooth muscle cell differentiation—Human pluripotent stem cell cells (H1) were cultured in E8 medium on a […]™-coated plate. To achieve the best differentiation results, ES cells were split using EDTA at 1:4 ratios two days before the differentiation. The cells reached 80-90% confluency two days later. At the day of the differentiation, ES cells were dissociated by ACCUTASE™ (Invitrogen) for 3-5 min at 37 ° C. The cells were plated on a […]™-coated plate at 1:4 ratios (1×10^5 cells/cm2). […] An increased CHIR99021 concentration of 3 μM decreased cell proliferation at 36 hours but increased MYH11 expression. At 36 hours, the cells were passaged and seeded on a new […]™-coated plate (1.6×10^4 cells/cm2). The low cell density is critical for the differentiation. A cell density of 1.0-4.0×10^4 cells/cm2 for different cell lines can be tested, such that 100% cell confluence will be achieved at day 6, which gives rise to the best differentiation efficiency. The cells were treated with E6T medium (E8 medium minus FGF2 but still containing 1.7 ng/ml TGF-β1) for 18 hours to induce the transient and medium level expression of MEOX1. E5F medium (E8 medium minus insulin and TGF-β1, but still containing 100 ng/ml FGF2) was used to suppress MEOX1 expression for another 5 days (days 3-8). Next, the cells were treated with E6FVR medium (E6 medium with 100 ng/ml FGF2, 50 ng/ml VEGFA, and 5 μM RESV, a NOTCH agonist) to induce SMC progenitors from day 8-12. E6R (E6 medium+5 μM RESV) medium supplemented with RepSox (25 μM), was then used to further mature SMCs from day 12 to 24. Cells were split (1×10^5 cells/cm2) at day 16 and further differentiated until day 24. The cells can be cryopreserved at day 16 or day 24. For P-SMCs, T-SMCs, and PT-SMCs, RepSox was replaced by PDGF-BB (10 ng/ml), TGF-β1 (1.7 ng/ml), or combination of PDGF-BB and TGF-β1, respectively, from day 12 to 24. From day 0-4: medium was changed every day. From day 2-24: medium was changed every other day. For day 1 and day 8-24, 1.5×volumes of medium, compared to the normal volume used in the well, were used. […]

NOTCH1 = tested on: NOTCH1
Protocol: Data are represented as mean±SD, n=3 biological replicates. *, p<0.05, student t-test. […] Cells were treated with RepSox (25 μM) or SiRNA. Comb3: Knockdown of TGFBR1, ACVR1B, and ACVR1C at the same time. Data are represented as mean±SD, n=2 biological replicates. *, p<0.05, student t-test. […] Cells were treated with RepSox (25 μM) or SiRNA. Data are represented as mean±SD, n=2 biological replicates. *, p<0.05, student t-test. […] During the smooth muscle cells differentiation, cells were treated with or without RepSox from day 10-11. […] During the smooth muscle cells differentiation, cells were treated with RepSox for 1 or 20 hours at day 12. […] Data are represented as mean±SD, n=3 biological replicates. *, p<0.05, student t-test. […] Cells were treated with RepSox and non-targeting control (NT)/SiRNA at day 10. The RNA was isolated at day 14.

[1] = tested on: MYH11 promoter-driven luciferase activity; assay: High-throughput screening, MYH11-Nluc-2A-Tom reporter human ES cell line, luciferase assay; format: cell-based
Protocol: FIGS. 1A-1C depict a schematic of high-throughput screening. […] The cells were passaged at day 4 and seeded on the 96-well plate for screening (2×10^6 cells/plate). After the reporter cell line was differentiated into mesoderm, small molecules were added to the cells from day 4 to day 14. FIG. 1B depicts the results of the screening in two batches. The luciferase assay results of individual small molecules were normalized to the average reads of all samples for each batch. The small molecules were selected for further analysis when the normalized reads were greater than “average+3×STDEV”. FIG. 1C depicts optimizing the concentration of the selected small molecules.
The cells were treated with 50 ng/ml FGF2 and 20 ng/ml BMP4 for another two days. The cells were passaged at day 4 and seeded on the 96-well plate for screening (2×10^6 cells/plate). The compounds were added from day 4-14. The Luciferase substrate (1000× dilution) (Nano-Glo Luciferase Assay system, Promega) was added to the medium for 15 min and luminescence was measured. An increase in luminescence indicates increased MYH11 expression, which is an indicator of the contractile smooth muscle cell phenotype. The Thomson custom stem cell Modulator 1, GSK-kinase inhibitor library, SellekChem Kinase inhibitor library, Analyticon NATx library, Prestwick Chemical Library, GlaxoSmithKline Protein Kinase Inhibitors, and part of Enamine Representative Diversity library were used for screening.
High-throughput screening directs contractile smooth muscle cell differentiation—The construction of the MYH11-NLuc-tdTomato human ES cell reporter line generated by CRISPR/Cas9 technology is described in FIGS. 6A-6H. The reporter cell line was differentiated into mesoderm in E8BAC medium (Zhang et al., 2017) for two days and treated with FGF2 and BMP4 to further mature mesoderm for another two days. The cells were then passaged into a 96-well plate and exposed to small molecules for 10 days using a customized robotic workstation (FIG. 1A). The workstation was designed through collaboration with TECAN, which enables us to perform the automatic high-throughput screening at specific time point and in long-term. The medium were changed every other day and the small molecules were added during the feeding. […] We then validated these hits and optimized their concentration.

## Cc1cccc(-c2n[nH]cc2-c2ccc3ncccc3n2)n1 [RepSox, RepSox (SJN 2511)]
MYH11-Tom+ cells
  efficiency of SMC differentiation (MYH11-tdTomato+): > 95%
NOTCH1; RepSox for 1 or 20 hours at day 12
  RepSox treatment time after which increased NOTCH signaling could be detected: 1 h
NOTCH1; treated with or without RepSox day 10-11
  full-length NOTCH1 and intracellular domain (NICD) expression: enhanced
[1]; hits validated, concentration optimized
  effectiveness at promoting MYH11 expression among validated hits: most effective
[1]; small molecules added day 4-14, selected when normalized reads > average+3×STDEV
  promotes MYH11+ SMC differentiation (increased MYH11 promoter-driven luciferase activity): promotes MYH11^+ SMC differentiation
